Experimental data: patent publication US20090191144A1, “USE OF LIPID COMPONENTS AGAINST POLLEN ALLERGIES” (BEIERSDORF AG, priority 2008, published 2009)

Test: Viscosity of preferred lipids
Type: physicochemical

| Compound | Viskosity (in mPas) (s^−1 = 500) [mPas] |
| --- | --- |
| Pentaerythrityl Tetraisostearate [DUB PTIS] | 57 |
| CCCCCCCCCCCCCCCCCC(=O)OCCCC [Crodamol BS, Butyl Stearate] | 100 |
| CCCCC(CC)C(=O)OCC(COC(=O)C(CC)CCCC)(COC(=O)C(CC)CCCC)COC(=O)C(CC)CCCC (centres unmarked) [Trivent PE 48, Pentaerythrityl Tetraethylhexanoate] | 116 |
| Triisononanoin [Isodragol] | 67 |
| Triisostearin [Prisorine 2041 GTIS] | 99 |
| CCCCCCCCCCC(CO)CCCCCCCC (centres unmarked) [Eutanol G, Octyldodecanol] | 47.7 |
| CCCCOCCOP(=O)(OCCOCCCC)OCCOCCCC [Hostaphat B 310, Tributoxyethylphosphate] | 122 |
| Triisodecyl Trimelliate [DUB TMI] | 111 |
| CC(C)CCCC(C)CCCC(C)CCCCC(C)CCCC(C)CCCC(C)C (centres unmarked) [Motif, Squalan] | 220 |
| PEG-2 Diethylhexanoate [Dermol 488] | 110 |
| CC(C)CCCCCCCCCCCCCCCOC(=O)CC(O)C(=O)OCCCCCCCCCCCCCCCC(C)C (centres unmarked) [DUB MDIS, Diisostearyl Malate] | 113 |
| Pentaerythrityl Tetraisostearate [Crodamol PTIS 3797] | 390 |
| Hydroxystearate Glycerol Triacetyle | 65 |
| Tridecyl Trimellitate [DUB TMTD] | 116 |
